This is an account of results in patent US8702927B2, “Multiple-electrode and metal-coated probes” (The Trustees Of The University Of Pennsylvania, priority 2009, dated 2014).

SMILES strings stand for the structures. “And” between values parts separate entries of the source, which are not always exact repeats. Equal values may be shown once.

One assay has as its system GABAA receptor. Kind of assay: CNP-recorded membrane potential of HT-22 cells during pharmacological stimulation (GABA, bicuculline), current-clamp. Type of assay: cell-based, mouse.
A further assay relates to HT-22 cells. Kind of assay: CNP-recorded membrane potential of HT-22 cells during ionic (K+) enrichment, current-clamp. The note with it: for depolarization of membrane potential: KCl added to cell bath; for time for cell to return to its RMP: after KCl. The class given is cell-based, mouse. The text has this: Because the cell membrane is highly permeable to potassium ions (K^+), an increase or decrease in extracellular K+ concentration will, respectively, cause a resting cell to depolarize (membrane potential becoming more positive) or hyperpolarize (membrane potential becoming more negative). Utilizing CNPs, variations in membrane potential were monitored over tens of minutes. FIG. 8A is a recording of membrane potential from an HT-22 cell during perfusion intervals with normal HBSS and K+-enriched HBSS (additional 5 mM K^+). […] After approximately 2 min at higher extracellular K^+, the cell was perfused with normal HBSS and the cell slowly returned to its RMP.
Next, a CNP was used to measure changes in membrane potential during repetitive extracellular administration of KCl [FIG. 8B]. After penetrating the cell, as indicated by the arrow in FIG. 8B, the CNP measured a stable RMP under normal HBSS perfusion (Emp=−68 mV). […] Under constant perfusion in normal HBSS, the membrane potential returned to its original value after […]. The results were reproducible with high fidelity.
FIG. 8C is a representation of potential variations as a function of time during the administration of HBSS and the varied K+-enrichment of HBSS (additional 5 and 15 mM K^+). […] As normal HBSS perfusion brought the bath back to its initial K+ concentration, the cell returned to its RMP in ˜90 seconds.
The mouse hippocampal cell line HT-22 was kindly provided by Dr. David Schubert (The Salk Institute, San Diego, Calif.). Cells were grown in Dulbecco's Modified Eagle Medium (DMEM, high glucose) supplemented with 10% fetal bovine serum (FBS) and 1% antibiotics. The cells were plated on 12 mm cover slips 48 hrs prior to the electrophysiology measurements. The cells on the cover slips were incubated in HBSS (with calcium and magnesium) at room temperature for 10 min prior to measurements. The cover slips were subsequently placed in an open diamond perfision bath (Warner Instruments Corp., RC-22C) positioned on an upright microscope (Nikon eclipse E600FN, 40× water-immersion lens, Burleigh Gibraltar fixed-stage platform) located atop a vibration-isolation table. Cells were routinely perfised with HBSS at a flow rate of 1.0 mllmin.
Membrane potential measurements were recorded with an Axon AxoClamp-2A amplifier equipped with a headstage for high resistance electrodes (Axon HS2-XO.OlMU) and Digidata 1322A digitizer (Axon Instruments/Molecular Devices, Sunnyvale, Calif.). Experimental protocols were controlled and data acquired by a personal computer using the Clampex 8.2 software (Axon Instruments). CNPs were inserted into a standard electrode holder until the metal wire of the holder came in contact with the inner carbon film of the CNP. A slight positive pressure was applied through the holder's perfixion port to keep external solution from filling the hollow CNP by capillarity. A micromanipulator (Narishige MHW-3) was used to manipulate and position the CNP electrodes during the electrophysiology measurements. All the electrical measurements were carried out versus an AgIAgCl reference electrode submerged in HBSS in discontinuous current clamp @CC) mode, at zero current, with no capacitance compensation. The CNP potential was nulled (+I-2 mV) with the amplifier offset potential during immersion in HBSS before all electrical measurements. Recorded electrical measurements were not adjusted to compensate for differences in extracellular and intracellular junction potentials.

Method for GABAA receptor: Y-aminobutyric acid (GABA), a principal inhibitory neurotransmitter in the mammalian central nervous system which acts as an agonist for the membrane-bound GABAA receptor, was administered. When GABA binds to the GABAA receptor, the cell hyperpolarizes as a result of C1-ion influx due to the opening of the ligand-gated C1-ion channel. However, the hyperpolarization can be blocked by perfusing cells with bicuculline (BIC), a competitive antagonist for the GABAA receptor which binds to the GABAA receptor and prevents it from opening even in the presence of GABA.
FIG. 10A illustrates how an HT-22 cell responded when GABA was added to the cell bath (12 mM GABA in bath, arrow).
FIG. 10B represents the opposing membrane responses to such stimuli over time.

`NCCCC(=O)O` [GABA, Y-aminobutyric acid]: the “hyperpolarization from the RMP” value in the assay with GABAA receptor (12 mM GABA in bath, normal HBSS perfusion, FIG. 10A, FIG. 10B) is 10 mV and 12 mV. Further, in the assay on GABAA receptor (after 12 mM GABA, constant HBSS perfusion), the “time for cell to return to its RMP” value was 30 s and 60 s.
`[Cl-].[K+]` [KCl, Potassium chloride]: the “depolarization of membrane potential” value with HT-22 cells (additional 5 mM K+, RMP -57 mV, FIG. 8C) was 10 mV; with HT-22 cells (additional 15 mM K+, RMP -57 mV, FIG. 8C, FIG. 10B), 30 mV and 25 mV; in the assay on HT-22 cells (additional 25 mM K+, RMP -68 mV, FIG. 8B), 40 mV. Besides, the “time for cell to return to its RMP” value with HT-22 cells (additional 5 mM K+, normal HBSS perfusion) was ~90 s; with HT-22 cells (additional 15 mM K+, HBSS perfusion), ~90 s and 60 s.
